Patent US20260217703A1, “INHIBITORS OF a-HEMOL YSIN OF STAPHYLOCOCCUS AUREUS” (HELMHOLTZ-ZENTRUM FÜR INFEKTIONSFORSCHUNG GMBH, priority 2022, published 2026)

Assays:
[1] = target: hemolysin alpha from Staphylococcus aureus (Staphylococcus aureus, UniProt P09616); assay: cell-based
[2] = target: S. aureus Alpha hemolysin (Staphylococcus aureus, UniProt P09616); assay: cell-based
Chain of S. aureus Alpha hemolysin (P09616 27-319 limits assumed): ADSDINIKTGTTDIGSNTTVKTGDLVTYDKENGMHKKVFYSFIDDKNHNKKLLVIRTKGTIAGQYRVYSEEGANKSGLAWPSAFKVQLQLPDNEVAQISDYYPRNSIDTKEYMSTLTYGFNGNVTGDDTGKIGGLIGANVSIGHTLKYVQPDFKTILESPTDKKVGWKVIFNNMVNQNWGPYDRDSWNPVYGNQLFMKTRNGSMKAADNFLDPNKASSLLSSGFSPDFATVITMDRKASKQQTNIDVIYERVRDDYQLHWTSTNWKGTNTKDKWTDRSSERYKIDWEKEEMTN

Chain of hemolysin alpha from Staphylococcus aureus (P09616 27-319 limits assumed): as above

Compound	IC50 [1]	IC50 [2]
Cc1cc2[nH]c(=O)c(=O)[nH]c2nc1S(=O)(=O)Nc1ccc(-c2ccc(F)cc2)c(Cl)c1 [Compound 9, N-(2-chloro-4′-fluoro-[1,1′-biphenyl]-4-yl)-7-methyl-2,3-dioxo-1,2,3,4-tetrahydropyrido[2,3-b]pyrazine-6-sulfonamide]	< 30 nM	100 to 1000 nM
Cc1cc2[nH]c(=O)c(=O)[nH]c2nc1S(=O)(=O)Nc1ccc(-c2ccc(F)c(Cl)c2)c(Cl)c1 [Compound 10, N-(2,3′-dichloro-4′-fluoro-[1,1′-biphenyl]-4-yl)-7-methyl-2,3-dioxo-1,2,3,4-tetrahydropyrido[2,3-b]pyrazine-6-sulfonamide]	30 to 100 nM	1000 to 6000 nM
Cc1cc2[nH]c(=O)c(=O)[nH]c2nc1S(=O)(=O)Nc1ccc(-c2cncc(Cl)c2)c(Cl)c1 [Compound 11, N-(3-chloro-4-(5-chloropyridin-3-yl)phenyl)-7-methyl-2,3-dioxo-1,2,3,4-tetrahydropyrido[2,3-b]pyrazine-6-sulfonamide]	100 to 1000 nM	100 to 1000 nM
Cc1cc2[nH]c(=O)c(=O)[nH]c2nc1S(=O)(=O)Nc1cnc(-c2ccc(F)cc2)c(Cl)c1 [Compound 12, N-(5-chloro-6-(4-fluorophenyl)pyridin-3-yl)-7-methyl-2,3-dioxo-1,2,3,4-tetrahydropyrido[2,3-b]pyrazine-6-sulfonamide]	30 to 100 nM	1000 to 6000 nM
Cc1cc2[nH]c(=O)c(=O)[nH]c2nc1S(=O)(=O)Nc1cnc(-c2cncc(Cl)c2)c(Cl)c1 [Compound 13, N-(3,5′-dichloro-[2,3′-bipyridin]-5-yl)-7-methyl-2,3-dioxo-1,2,3,4-tetrahydropyrido[2,3-b]pyrazine-6-sulfonamide]	1000 to 3500 nM	
COc1ccc(-c2ccc(NS(=O)(=O)c3nc4[nH]c(=O)c(=O)[nH]c4cc3C)cc2Cl)cc1F [Compound 14, N-(2-chloro-3′-fluoro-4′-methoxy-[1,1′-biphenyl]-4-yl)-7-methyl-2,3-dioxo-1,2,3,4-tetrahydropyrido[2,3-b]pyrazine-6-sulfonamide]	30 to 100 nM	100 to 1000 nM
Cc1nc2cc(-c3ccc(NS(=O)(=O)c4nc5[nH]c(=O)c(=O)[nH]c5cc4C)cc3Cl)ccc2o1 [Compound 15, N-(3-chloro-4-(2-methylbenzo[d]oxazol-5-yl)phenyl)-7-methyl-2,3-dioxo-1,2,3,4-tetrahydropyrido[2,3-b]pyrazine-6-sulfonamide]	< 30 nM	30 to 100 nM
Cc1cc2[nH]c(=O)c(=O)[nH]c2nc1S(=O)(=O)Nc1ccc(-c2ccc3cc[nH]c3c2)c(Cl)c1 [Compound 16, N-(3-chloro-4-(1H-indol-6-yl)phenyl)-7-methyl-2,3-dioxo-1,2,3,4-tetrahydropyrido[2,3-b]pyrazine-6-sulfonamide]	< 30 nM	100 to 1000 nM
Cc1cc2[nH]c(=O)c(=O)[nH]c2nc1S(=O)(=O)Nc1ccc(-c2ccc(C#N)cc2)c(Cl)c1 [Compound 17, N-(2-chloro-4′-cyano-[1,1′-biphenyl]-4-yl)-7-methyl-2,3-dioxo-1,2,3,4-tetrahydropyrido[2,3-b]pyrazine-6-sulfonamide]	30 to 100 nM	100 to 1000 nM
Cc1cc(NS(=O)(=O)c2nc3[nH]c(=O)c(=O)[nH]c3cc2C)ccc1Br [Compound 18, N-(4-bromo-3-methylphenyl)-7-methyl-2,3-dioxo-1,2,3,4-tetrahydropyrido[2,3-b]pyrazine-6-sulfonamide]	100 to 1000 nM	100 to 1000 nM
Cc1cc2[nH]c(=O)c(=O)[nH]c2nc1S(=O)(=O)Nc1ccc(C(C)C)cc1 [Compound 19, N-(4-isopropylphenyl)-7-methyl-2,3-dioxo-1,2,3,4-tetrahydropyrido[2,3-b]pyrazine-6-sulfonamide]	100 to 1000 nM	100 to 1000 nM
Cc1cc2[nH]c(=O)c(=O)[nH]c2nc1S(=O)(=O)Nc1ccc(C2=CCCCC2)cc1 [Compound 20, 7-methyl-2,3-dioxo-N-(2′,3′,4′,5′-tetrahydro-[1,1′-biphenyl]-4-yl)-1,2,3,4-tetrahydropyrido[2,3-b]pyrazine-6-sulfonamide]	100 to 1000 nM	100 to 1000 nM
Cc1cc2[nH]c(=O)c(=O)[nH]c2nc1S(=O)(=O)Nc1ccc(C2CCC2)cc1 [Compound 21, N-(4-cyclobutylphenyl)-7-methyl-2,3-dioxo-1,2,3,4-tetrahydropyrido[2,3-b]pyrazine-6-sulfonamide]	< 30 nM	30 to 100 nM
Cc1cc2[nH]c(=O)c(=O)[nH]c2nc1S(=O)(=O)Nc1ccc(OC(F)(F)F)cc1 [Compound 22, 7-methyl-2,3-dioxo-N-(4-(trifluoromethoxy)phenyl)-1,2,3,4-tetrahydropyrido[2,3-b]pyrazine-6-sulfonamide]	< 30 nM	< 30 nM
Cc1cc2[nH]c(=O)c(=O)[nH]c2nc1S(=O)(=O)Nc1ccc(C23CC(C2)C3)cc1 [Compound 23, N-(4-(bicyclo[1.1.1]pentan-1-yl)phenyl)-7-methyl-2,3-dioxo-1,2,3,4-tetrahydropyrido[2,3-b]pyrazine-6-sulfonamide]	< 30 nM	100 to 1000 nM
Cc1cc2[nH]c(=O)c(=O)[nH]c2nc1S(=O)(=O)Nc1ccc2ccccc2c1 [Compound 24, 7-methyl-N-(naphthalen-2-yl)-2,3-dioxo-1,2,3,4-tetrahydropyrido[2,3-b]pyrazine-6-sulfonamide]	100 to 1000 nM	100 to 1000 nM
O=c1[nH]c2cc(Br)c(S(=O)(=O)Nc3ccc(OC(F)(F)F)cc3)nc2[nH]c1=O [Compound 25, 7-bromo-2,3-dioxo-N-(4-(trifluoromethoxy)phenyl)-1,2,3,4-tetrahydropyrido[2,3-b]pyrazine-6-sulfonamide]	30 to 100 nM	100 to 1000 nM
O=c1[nH]c2ccc(S(=O)(=O)Nc3ccc(OC(F)(F)F)cc3)nc2[nH]c1=O [Compound 26, 2,3-dioxo-N-(4-(trifluoromethoxy)phenyl)-1,2,3,4-tetrahydropyrido[2,3-b]pyrazine-6-sulfonamide]	100 to 1000 nM	100 to 1000 nM
C=C(C)c1cc2[nH]c(=O)c(=O)[nH]c2nc1S(=O)(=O)Nc1ccc(OC(F)(F)F)cc1 [Compound 27, 2,3-dioxo-7-(prop-1-en-2-yl)-N-(4-(trifluoromethoxy)phenyl)-1,2,3,4-tetrahydropyrido[2,3-b]pyrazine-6-sulfonamide]	< 30 nM	< 30 nM
Cc1nc2ccc(-c3ccc(NS(=O)(=O)c4ccc5[nH]c(=O)c(=O)[nH]c5n4)cc3Cl)cc2o1 [Compound 28, N-(3-chloro-4-(2-methylbenzo[d]oxazol-6-yl)phenyl)-2,3-dioxo-1,2,3,4-tetrahydropyrido[2,3-b]pyrazine-6-sulfonamide]	< 30 nM	100 to 1000 nM
O=c1[nH]c2ccc(S(=O)(=O)Nc3ccc(-c4ccc(F)cc4)c(Cl)c3)nc2[nH]c1=O [Compound 29, N-(2-chloro-4′-fluoro-[1,1′-biphenyl]-4-yl)-2,3-dioxo-1,2,3,4-tetrahydropyrido[2,3-b]pyrazine-6-sulfonamide]	100 to 1000 nM	1000 to 6000 nM
Cc1nc2ccc(-c3ccc(NS(=O)(=O)c4ccc5[nH]c(=O)c(=O)[nH]c5n4)cc3Cl)cc2[nH]1 [Compound 30, N-(3-chloro-4-(2-methyl-1H-benzo[d]imidazol-6-yl)phenyl)-2,3-dioxo-1,2,3,4-tetrahydropyrido[2,3-b]pyrazine-6-sulfonamide]	1000 to 3500 nM	
Cc1nc2cc(-c3ncc(NS(=O)(=O)c4ccc5[nH]c(=O)c(=O)[nH]c5n4)cc3Cl)ccc2o1 [Compound 31, N-(5-chloro-6-(2-methylbenzo[d]oxazol-5-yl)pyridin-3-yl)-2,3-dioxo-1,2,3,4-tetrahydropyrido[2,3-b]pyrazine-6-sulfonamide]	100 to 1000 nM	1000 to 6000 nM
Cc1cc2[nH]c(=O)c(=O)[nH]c2nc1S(=O)(=O)Nc1ccc(-c2ccc(F)cc2)c(C(F)(F)F)c1 [Compound 32, N-(4′-fluoro-2-(trifluoromethyl)-[1,1′-biphenyl]-4-yl)-7-methyl-2,3-dioxo-1,2,3,4-tetrahydropyrido[2,3-b]pyrazine-6-sulfonamide]	100 to 1000 nM	100 to 1000 nM
Cc1cc(NS(=O)(=O)c2nc3[nH]c(=O)c(=O)[nH]c3cc2C)ccc1-c1ccc(F)cc1 [Compound 33, N-(4′-fluoro-2-methyl-[1,1′-biphenyl]-4-yl)-7-methyl-2,3-dioxo-1,2,3,4-tetrahydropyrido[2,3-b]pyrazine-6-sulfonamide]	100 to 1000 nM	30 to 100 nM
CC(C)c1cc2[nH]c(=O)c(=O)[nH]c2nc1S(=O)(=O)Nc1ccc(OC(F)(F)F)cc1 [Compound 34, 7-isopropyl-2,3-dioxo-N-(4-(trifluoromethoxy)phenyl)-1,2,3,4-tetrahydropyrido[2,3-b]pyrazine-6-sulfonamide]	30 to 100 nM	100 to 1000 nM
Cc1nc2cc(-c3ncc(NS(=O)(=O)c4nc5[nH]c(=O)c(=O)[nH]c5cc4C)cc3Cl)ccc2o1 [Compound 35, N-(5-chloro-6-(2-methylbenzo[d]oxazol-5-yl)pyridin-3-yl)-7-methyl-2,3-dioxo-1,2,3,4-tetrahydropyrido[2,3-b]pyrazine-6-sulfonamide]	< 30 nM	100 to 1000 nM
Cc1cc2[nH]c(=O)c(=O)[nH]c2nc1S(=O)(=O)Nc1cnc(-c2ccc3c(c2)NC(=O)CO3)c(Cl)c1 [Compound 36, N-(5-chloro-6-(3-oxo-3,4-dihydro-2H-benzo[b][1,4]oxazin-6-yl)pyridin-3-yl)-7-methyl-2,3-dioxo-1,2,3,4-tetrahydropyrido[2,3-b]pyrazine-6-sulfonamide]	30 to 100 nM	1000 to 6000 nM
Cc1cc2[nH]c(=O)c(=O)[nH]c2nc1S(=O)(=O)Nc1ccc(-c2ccc3oc(C(C)C)nc3c2)c(Cl)c1 [Compound 37, N-(3-chloro-4-(2-isopropylbenzo[d]oxazol-5-yl)phenyl)-7-methyl-2,3-dioxo-1,2,3,4-tetrahydropyrido[2,3-b]pyrazine-6-sulfonamide]	< 30 nM	100 to 1000 nM
Cc1nc2cc(-c3ccc(NS(=O)(=O)c4nc5[nH]c(=O)c(=O)[nH]c5cc4C)cc3C(F)(F)F)ccc2o1 [Compound 38, 7-methyl-N-(4-(2-methylbenzo[d]oxazol-5-yl)-3-(trifluoromethyl)phenyl)-2,3-dioxo-1,2,3,4-tetrahydropyrido[2,3-b]pyrazine-6-sulfonamide]	< 30 nM	100 to 1000 nM
